Measured values as given in patent publication US11548875B2, “Inhibitor compounds for male contraception” (University of Washington, priority 2018, dated 2023).
Like-named read-outs stand apart in the source and are kept apart here.

How the values were obtained:
ALDH1A2 [1] = target: T1, ALDH1A2 (Homo sapiens, UniProt O94788); experiment: Inhibitor screening using purified enzymes: ALDH1A2 activity, retinoic acid production by HPLC (5 uM initial screen, then IC50); assay type: biochemical; parameters: histidine-tag (C); made in house; host or cells: bacterial expression (pET28 vector, IPTG induction); conditions: purified enzyme
T1 sequence (O94788 1-518): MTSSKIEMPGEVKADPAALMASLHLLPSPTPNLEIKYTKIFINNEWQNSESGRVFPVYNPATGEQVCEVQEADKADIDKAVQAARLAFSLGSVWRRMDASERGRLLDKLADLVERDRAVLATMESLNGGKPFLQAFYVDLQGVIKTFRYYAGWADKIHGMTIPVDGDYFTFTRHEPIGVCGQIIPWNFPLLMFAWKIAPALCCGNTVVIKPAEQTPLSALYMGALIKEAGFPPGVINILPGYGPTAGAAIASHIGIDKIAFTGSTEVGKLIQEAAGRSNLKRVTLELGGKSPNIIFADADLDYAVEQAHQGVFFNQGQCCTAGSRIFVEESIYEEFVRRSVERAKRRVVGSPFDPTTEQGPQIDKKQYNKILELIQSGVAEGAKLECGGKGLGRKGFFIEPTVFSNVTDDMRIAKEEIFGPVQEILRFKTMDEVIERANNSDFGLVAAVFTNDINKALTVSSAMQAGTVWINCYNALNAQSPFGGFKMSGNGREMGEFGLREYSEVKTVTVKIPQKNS
How it was run: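 Purified His-tagged human enzymes in 10 mM HEPES pH 8.0, 150 mM KCl, 2 mM EDTA with 2 mM NAD, all-trans-retinal substrate; retinoic acid quantified by HPLC. ALDH1A2 initial screen: 1 μg enzyme, 5 μM retinal, 5 μM inhibitor, 15 min, 37° C; IC50 runs: 0.5 μg enzyme, 0.5 μg retinal, 5 min, 37° C.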

ALDH1A2 [2] = target: T1, ALDH1A2; experiment: Cell-based enzyme assay, retinoic acid production in ALDH1A2/H1299 cells
Description: (§1) ALDH1A1 cDNA clone was purchased transfection-ready, and ALDH1A2 full-length cDNA was subcloned into pcDNA3, a mammalian expression vector. ALDH1A1 and ALDH1A2 were transfected into H1299 cells (CRL5803, ATCC) using Lipofectamine 3000 (Invitrogen) following the manufacturer's instructions. Stably transfected cells were selected with G418 (1.2 mg/ml) and referred to as ALDH1A1/H1299 and ALDH1A2/H1299. For the cell-based enzyme assays,
(§2) H1299 cells were routinely grown in RPMI-1640 (ATCC) supplemented with 10% fetal bovine serum (Atlanta Biologicals) in a 37 C, 5% CO2, moisture-saturated atmosphere. H1299, ALDH1A1/H1299 and ALDH1A2/H1299 cells were seeded into 12-well plates (1×10^5 cells/well) and grown for 2 days to confluence. Confluent cells were treated for 20 hours in the above media excluding serum with 2 μM all-trans-retinal, and varying concentrations of inhibitors. Serum-free media was used for the treatment period to avoid retinoic acid in serum. Retinoic acid concentrations were determined from cells and media, and specificity of inhibitors was determined by comparing retinoic acid levels in the presence and absence of the inhibitors in ALDH1A1- vs. ALDH1A2-expressing cells.

ALDH1A1 [3] = target: T2, ALDH1A1 (Homo sapiens, UniProt P00352); experiment: Inhibitor screening using purified enzymes: ALDH1A1 activity, retinoic acid production by HPLC; assay type: biochemical; conditions: purified enzyme
T2 sequence (P00352 1-501): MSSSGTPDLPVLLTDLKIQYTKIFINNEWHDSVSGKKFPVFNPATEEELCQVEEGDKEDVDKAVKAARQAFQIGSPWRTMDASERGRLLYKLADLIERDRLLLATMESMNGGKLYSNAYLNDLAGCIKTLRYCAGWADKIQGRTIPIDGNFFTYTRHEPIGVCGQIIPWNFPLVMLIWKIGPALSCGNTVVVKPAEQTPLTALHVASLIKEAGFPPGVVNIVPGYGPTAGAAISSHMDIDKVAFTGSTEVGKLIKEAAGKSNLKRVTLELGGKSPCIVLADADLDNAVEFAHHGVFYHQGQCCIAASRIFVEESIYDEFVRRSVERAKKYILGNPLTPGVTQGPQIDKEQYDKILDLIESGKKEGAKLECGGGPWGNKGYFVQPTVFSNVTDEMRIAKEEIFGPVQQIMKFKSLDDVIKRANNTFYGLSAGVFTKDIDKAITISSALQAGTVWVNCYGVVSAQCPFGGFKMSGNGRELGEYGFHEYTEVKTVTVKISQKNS
Text: ALDHs were cloned into bacterial expression vector for in vitro enzyme assays and into mammalian expression vectors for cell-based enzyme assays. Human ALDH1A1 cDNA and human ALDH2 cDNA were purchased from OriGene (SC321535) and Open Biosystems (MHS4771-99611182), respectively. and human ALDH1A2 cDNA was cloned from human testis RNA using RT-PCR (Population Division of the Department of Economic and Social Affairs of the United Nations Secretariat. World Population prospects: the 2008 revision. Available at http://www.un.org/esa/population/ (Retrieved Sep. 30, 2011)). For bacterial expression, an open reading frame of ALDH1A1 and ALDH2 were subcloned into the pETite vector (Lucigen) with a 5′ histidine-tag and that of ALDH1A2 into a pET28 vector (Novagen) with a 3′ histidine-tag. Correct frame and sequences were verified through DNA sequencing (UW DNA sequencing facility). ALDHs were induced with 1 mM IPTG and purified using His.Bind resin (Novagen, San Diego, Calif.) and stored in a buffer containing 20 mM Hepes (pH 8), 150 mM KCl and 1 mM EDTA as previously described (Fierce, Y., de Morais Vieira, M., Piantedosi, R., Wyss, A., Blaner, W. S., and Paik, J. (2008) In vitro and in vivo characterization of retinoid synthesis from beta-carotene. Archives of biochemistry and biophysics 472, 126-138).
ALDH1A1 and ALDH1A2 activity was determined as previously reported (Beedle M T, Stevison F, Zhong G, Topping T, Hogarth C, Isoherranen N, Griswold M D. Sources of All-Trans Retinal Oxidation Independent of the Aldehyde Dehydrogenase 1A Isozymes Exist in the Postnatal Testis. Biol Reprod. 2018 Sep. 21. doi: 10.1093/biolre/ioy200). Briefly, purified enzymes were incubated in a buffer containing 10 mM HEPES buffer (pH 8.0), 150 mM potassium chloride and 2 mM EDTA with 2 mM NAD. Retinoic acid production was determined using HPLC as previously reported (Amory J K, Muller C H, Shimshoni A J, Isoherranen N, Paik J, Moreb J S, Amory D W, Evanoff R, Goldstein A S, Griswold M D. Suppression of spermatogenesis by bisdichloroacetyldiamines is mediated by inhibition of testicular retinoic acid biosynthesis. Journal of Andrology 2011; 32(1):111-119). Inhibitors were diluted in DMSO and added to the reactions. […] For initial screening of inhibitors for ALDH1A2, 1 μg ALDH1A2, 5 μM all-trans-retinal and 5 μM inhibitors were incubated for 15 min at 37° C. […] For this purpose, 0.5 μg ALDH1A2 and […] were incubated for 5 minutes at 37° C. with varying concentrations of inhibitors. To determine specificity toward ALDH1A2, the IC50 for […]

ALDH1A1 [4] = target: T2, ALDH1A1; experiment: Cell-based enzyme assay, retinoic acid production in ALDH1A1/H1299 cells
Description: as §1, §2

ALDH2 = target: T3, ALDH2 (Homo sapiens, UniProt P05091); experiment: Purified ALDH2 assay with propanal, NADH fluorescence; assay type: biochemical; conditions: purified enzyme
T3 construct: histidine-tag (N); made in house; host or cells: bacterial expression (pETite vector, IPTG induction)
T3 sequence (P05091 18-517): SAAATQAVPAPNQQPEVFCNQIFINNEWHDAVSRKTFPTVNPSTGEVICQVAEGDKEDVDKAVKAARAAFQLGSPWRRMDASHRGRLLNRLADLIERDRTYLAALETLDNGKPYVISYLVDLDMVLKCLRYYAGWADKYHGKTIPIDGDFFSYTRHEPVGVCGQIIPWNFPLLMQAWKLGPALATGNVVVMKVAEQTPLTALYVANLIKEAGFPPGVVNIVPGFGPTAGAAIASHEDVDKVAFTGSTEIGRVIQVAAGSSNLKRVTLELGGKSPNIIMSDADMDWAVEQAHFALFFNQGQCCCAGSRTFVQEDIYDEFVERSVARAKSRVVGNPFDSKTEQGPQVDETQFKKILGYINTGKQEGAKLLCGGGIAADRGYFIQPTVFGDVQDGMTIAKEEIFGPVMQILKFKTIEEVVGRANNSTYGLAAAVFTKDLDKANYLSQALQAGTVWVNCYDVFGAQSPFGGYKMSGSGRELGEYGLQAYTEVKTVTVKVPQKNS
How it was run: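 His-tagged human ALDH2 expressed in bacteria and purified. 2 μg enzyme incubated with 20 μM propanal and varying inhibitor concentrations at room temperature. Activity read as NADH fluorescence (Ex 350/Em 460 nm), with initial velocity from two consecutive readings over 1 minute.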

mice = conditions: cited from earlier work

Molecule	IC50 (ALDH1A2 [1])	EC50 (ALDH1A2 [2]; cell-based)	IC50 (ALDH1A1 [3])	EC50 (ALDH1A1 [4]; cell-based)	also measured
N#Cc1ccc(-n2cc(C(=O)Nc3cccc(F)c3)c(-c3ccc(NC(=O)C(Cl)Cl)cc3)n2)cc1 [Compound 310, 3-{4-[(Dichloroacetyl)amino]phenyl}-1-(4-cyanophenyl)-N-(3-fluorophenyl)-1H-pyrazole-4-carboxamide]	0.065 µM	0.245 µM	0.009 µM	0.14 µM	–
Cc1ccccc1-c1nn(-c2ccccc2)cc1C(=O)Nc1cccc(F)c1 [Compound 149, N-(3-Fluorophenyl)-3-(2-methylphenyl)-1-phenyl-1H-pyrazole-4-carboxamide]	2.15 µM	–	0.601 µM	–	IC50 (ALDH2): 4.6 µM
CC(=O)c1ccc(-c2nn(-c3ccc(C#N)cc3)cc2C(=O)Nc2cccc(F)c2)cc1 [Compound 316, 3-(4-Acetylphenyl)-N-(3-fluorophenyl)-1-(4-cyanophenyl)-1H-pyrazole-4-carboxamide]	0.6 µM	0.123 µM	10.2 µM	0.28 µM	–
C=C(C(=O)OC)c1ccc(-c2nn(-c3ccc(C#N)cc3)cc2C(=O)Nc2cccc(F)c2)cc1 [Compound 312, Methyl 2-(4-{4-[(3-fluorophenyl)carbamoyl]-1-4-cyanophenyl-1H-pyrazol-3-yl}phenyl)prop-2-enoate]	1.2 µM	12.5 µM	3.61 µM	0.251 µM	–
Cn1cccc1C(=O)N1CCN(c2ccc(NC(=O)C(Cl)Cl)c(N3CCCCC3)c2)CC1 [Compound 380, {4-[4-Dichloroacetamido-3-(piperidin-1-yl)phenyl]piperazin-1-yl}(1-methyl-1H-pyrrol-2-yl)methanone]	8.7 µM	–	0.023 µM	–	EC50 (ALDH1A2 [2]): > 5 µM; EC50 (ALDH1A1 [4]): 0.099 µM
3-{4-[(Difluoroacetyl)amino]phenyl}-1-(4-cyanophenyl)-N-(3-fluorophenyl)-1H-pyrazole-4-carboxamide [Compound 279]	0.61 µM	0.017 µM	0.029 µM	0.056 µM	–
CON(C)C(=O)c1ccc(-c2nn(-c3ccc(C#N)cc3)cc2C(=O)Nc2cccc(F)c2)cc1 [Compound 296]	0.15 µM	0.023 µM	9.44 µM	0.542 µM	–
O=C(Nc1cccc(F)c1)c1cn(-c2ccccc2)nc1-c1ccc(CNC(=O)C(Cl)Cl)cc1 [Compound 8-64, 3-(4-{[(Dichloroacetyl)amino]methyl}phenyl)-N-(3-fluorophenyl)-1-phenyl-1H-pyrazole-4-carboxamide]	0.015 µM	–	2 µM	–	–
Cn1cccc1C(=O)N1CCN(c2ccc(N)c(N3CCCCCC3)c2)CC1 [Compound 379, {4-[4-Amino-3-(azepan-1-yl)phenyl]piperazin-1-yl}(1-methyl-1H-pyrrol-2-yl)methanone]	2.58 µM	–	0.714 µM	–	EC50 (ALDH1A2 [2]): 2.58 µM; EC50 (ALDH1A1 [4]): 0.736 µM
CCN(Cc1nn(-c2ccccc2)cc1C(=O)Nc1cccc(F)c1)C(=O)C(Cl)Cl [Compound 8-54, 3-{[(Dichloroacetyl)(ethyl)amino]methyl}-N-(3-fluorophenyl)-1-phenyl-1H-pyrazole-4-carboxamide]	3.9 µM	–	0.092 µM	–	–
BMS-189453	–	–	–	–	fertility (mice; mice, oral): infertile after four weeks of treatment; liver toxicity (mice; mouse, in vivo): hepatic inflammation; effect on spermatogenesis (mice; oral doses as low as 5 mg/kg for seven days): potently inhibits spermatogenesis
Cc1ccc(NC(=O)c2cn(-c3ccccc3)nc2-c2ccc(F)cc2)cc1 [Compound 131, 3-(4-Fluorophenyl)-N-(4-methylphenyl)-1-phenyl-1H-pyrazole-4-carboxamide]	3.02 µM	–	0.388 µM	–	IC50 (ALDH2): 18.8 µM
